Experimental data published in patent US20230085307A1, “PYRIDAZINONE COMPOUND AND HERBICIDE” (NISSAN CHEMICAL CORPORATION, priority 2019, published 2023).

What was measured:
late watergrass = experiment: Test Example 1: herbicidal activity, application before weed generation under submerged conditions (Table 16, symbol A); format: in vivo, late watergrass (Echinochloa oryzicola); conditions: 320 g/ha applied herbicide
Procedure, shortened: (§1)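 Submerged Wagner pots (alluvial soil, 4 cm water) sown with weed seeds and planted with 2.5-leaf rice seedlings; emulsifiable concentrate diluted in water applied to water surface on sowing day. Held in greenhouse at 25-30 °C; injury scored 0-5 by herbicidal rate after three weeks.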

Japanese bulrush = experiment: Test Example 1: herbicidal activity, application before weed generation under submerged conditions (Table 16, symbol B); format: in vivo, Japanese bulrush (Schoenoplectus juncoides); conditions: 320 g/ha applied herbicide
Procedure, shortened: as §1

oval-leafed pondweed = experiment: Test Example 1: herbicidal activity, application before weed generation under submerged conditions (Table 16, symbol C); format: in vivo, oval-leafed pondweed (Monochoria vaginalis); conditions: 320 g/ha applied herbicide
Procedure, shortened: as §1

barnyard grass [1] = experiment: Test Example 3: herbicidal effect by foliage application, Wagner pot (Table 18, symbol H); format: in vivo, barnyard grass (Echinochloa crus-galli); conditions: amount of applied herbicide 320 g/ha
Procedure, shortened: (§2)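 Plants were sown in alluvial soil held under 0.1–0.5 cm standing water and grown 14 days in a greenhouse at 25–30 °C. An emulsifiable formulation, water-diluted to the set dose, was then sprayed onto the foliage, and effects were scored three weeks later using previously defined criteria.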

Chinese sprangletop = experiment: Test Example 3: herbicidal effect by foliage application, Wagner pot (Table 18, symbol D); format: in vivo, chinese sprangletop (Leptochloa chinensis); conditions: amount of applied herbicide 320 g/ha
Procedure, shortened: as §2

rice flat sedge = experiment: Test Example 3: herbicidal effect by foliage application, Wagner pot (Table 18, symbol E); format: in vivo, rice flat sedge (Cyperus iria); conditions: amount of applied herbicide 320 g/ha
Procedure, shortened: as §2

southern crabgrass = experiment: Test Example 4: herbicidal effect by soil treatment (Table 19, symbol F); format: in vivo, southern crabgrass (Digitaria ciliaris); conditions: amount of applied herbicide 320 g/ha
Procedure, shortened: (§3)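 Scoring uses the grading scale of an earlier test, three weeks post-application. Treatment consists of spraying a diluted emulsion formulation across the surface of sterilized diluvial soil in which seeds are buried near 1.5 cm deep; boxes are kept in a greenhouse between 25° C. and 30° C.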

green foxtail = experiment: Test Example 4: herbicidal effect by soil treatment (Table 19, symbol G); format: in vivo, green foxtail (Setaria viridis); conditions: amount of applied herbicide 320 g/ha
Procedure, shortened: as §3

barnyard grass [2] = experiment: Test Example 4: herbicidal effect by soil treatment (Table 19, symbol H); format: in vivo, barnyard grass (Echinochloa crus-galli); conditions: amount of applied herbicide 320 g/ha
Procedure, shortened: as §3

wild oat = experiment: Test Example 4: herbicidal effect by soil treatment (Table 19, symbol I); format: in vivo, wild oat (Avena fatua); conditions: amount of applied herbicide 320 g/ha
Procedure, shortened: as §3

blackgrass = experiment: Test Example 4: herbicidal effect by soil treatment (Table 19, symbol J); format: in vivo, blackgrass (Alopecurus myosuroides); conditions: amount of applied herbicide 320 g/ha
Procedure, shortened: as §3

Italian ryegrass = experiment: Test Example 4: herbicidal effect by soil treatment (Table 19, symbol K); format: in vivo, Italian ryegrass (Lolium multiflorum); conditions: amount of applied herbicide 320 g/ha
Procedure, shortened: as §3

windgrass = experiment: Test Example 4: herbicidal effect by soil treatment (Table 19, symbol L); format: in vivo, windgrass (Apera spica-venti); conditions: amount of applied herbicide 320 g/ha
Procedure, shortened: as §3

velvetleaf = experiment: Test Example 4: herbicidal effect by soil treatment (Table 19, symbol M); format: in vivo, velvetleaf (Abutilon theophrasti); conditions: amount of applied herbicide 320 g/ha
Procedure, shortened: as §3

redroot pigweed = experiment: Test Example 4: herbicidal effect by soil treatment (Table 19, symbol N); format: in vivo, redroot pigweed (Amaranthus retroflexus); conditions: amount of applied herbicide 320 g/ha
Procedure, shortened: as §3

lambsquarters = experiment: Test Example 4: herbicidal effect by soil treatment (Table 19, symbol O); format: in vivo, lambsquarters (Chenopodium album); conditions: amount of applied herbicide 320 g/ha
Procedure, shortened: as §3

chickweed = experiment: Test Example 4: herbicidal effect by soil treatment (Table 19, symbol P); format: in vivo, common chickweed (Stellaria media); conditions: amount of applied herbicide 320 g/ha
Procedure, shortened: as §3

persian speedwell = experiment: Test Example 4: herbicidal effect by soil treatment (Table 19, symbol R); format: in vivo, Persian speedwell (Veronica persica); conditions: amount of applied herbicide 320 g/ha
Procedure, shortened: as §3

Compound | Herbicidal effect on A: late watergrass (grade 0-5) (late watergrass) | Herbicidal effect on B: Japanese bulrush (grade 0-5) (Japanese bulrush) | Herbicidal effect on C: oval-leafed pondweed (grade 0-5) (oval-leafed pondweed) | herbicidal effect on H: barnyard grass (barnyard grass [1]) | herbicidal effect on D: Chinese sprangletop (Chinese sprangletop) | herbicidal effect on E: rice flat sedge (rice flat sedge) | herbicidal effect, F: southern crabgrass (southern crabgrass) | herbicidal effect, G: green foxtail (green foxtail) | herbicidal effect, H: barnyard grass (barnyard grass [2]) | herbicidal effect, I: wild oat (wild oat) | herbicidal effect, J: blackgrass (blackgrass) | herbicidal effect, K: Italian ryegrass (Italian ryegrass) | herbicidal effect, L: windgrass (windgrass) | herbicidal effect, M: velvetleaf (velvetleaf) | herbicidal effect, N: redroot pigweed (redroot pigweed) | herbicidal effect, O: lambsquarters (lambsquarters) | herbicidal effect, P: chickweed (chickweed) | herbicidal effect, R: persian speedwell (persian speedwell)
CCCC(=O)Oc1c(C)nn(C)c(=O)c1-c1c(-c2ccc(Cl)cc2OC)sc2ccc(F)cc12 [2-369] | 0 (Herbicidal rate of 5% or less (almost no effect)) | 0 (Herbicidal rate of 5% or less (almost no effect)) | 2 (Herbicidal rate of 20% or more and less than 40%) | 4 (Herbicidal rate of 70% or more and less than 90%) | 5 (Herbicidal rate of 90% or more (almost completely withered)) | 4 (Herbicidal rate of 70% or more and less than 90%) | 0 (Herbicidal rate of 5% or less (almost no effect)) | 0 (Herbicidal rate of 5% or less (almost no effect)) | 0 (Herbicidal rate of 5% or less (almost no effect)) | 0 (Herbicidal rate of 5% or less (almost no effect)) | 0 (Herbicidal rate of 5% or less (almost no effect)) | 0 (Herbicidal rate of 5% or less (almost no effect)) | 3 (Herbicidal rate of 40% or more and less than 70%) | 0 (Herbicidal rate of 5% or less (almost no effect)) | 0 (Herbicidal rate of 5% or less (almost no effect)) | 0 (Herbicidal rate of 5% or less (almost no effect)) | 0 (Herbicidal rate of 5% or less (almost no effect)) | 0 (Herbicidal rate of 5% or less (almost no effect))
Cc1nn(C)c(=O)c(-c2c(-c3ccc(OC(F)F)cc3)sc3ccc(Cl)cc23)c1O [2-374] | 3 (Herbicidal rate of 40% or more and less than 70%) | 0 (Herbicidal rate of 5% or less (almost no effect)) | 0 (Herbicidal rate of 5% or less (almost no effect)) | 5 (Herbicidal rate of 90% or more (almost completely withered)) | 4 (Herbicidal rate of 70% or more and less than 90%) | 5 (Herbicidal rate of 90% or more (almost completely withered)) | 4 (Herbicidal rate of 70% or more and less than 90%) | 1 (Herbicidal rate of 5% or more and less than 20%) | 4 (Herbicidal rate of 70% or more and less than 90%) | 0 (Herbicidal rate of 5% or less (almost no effect)) | 3 (Herbicidal rate of 40% or more and less than 70%) | 4 (Herbicidal rate of 70% or more and less than 90%) | 5 (Herbicidal rate of 90% or more (almost completely withered)) | 3 (Herbicidal rate of 40% or more and less than 70%) | 4 (Herbicidal rate of 70% or more and less than 90%) | 5 (Herbicidal rate of 90% or more (almost completely withered)) | 3 (Herbicidal rate of 40% or more and less than 70%) | 5 (Herbicidal rate of 90% or more (almost completely withered))
